Laboratory results taken from ChEMBL document CHEMBL4602710 (ACS Med Chem Lett, 2020).
In brackets after ≈: the same amount, converted by molar mass.

How the values were obtained:
[1] = target: T1, Tyrosine-protein kinase SYK (Homo sapiens, UniProt P43405); test: Inhibition of SYK (unknown origin) using XL665-labeled peptide as substrate in presence of ATP measured after 30 mins by TR-FRET assay
[2] = target: T1, Tyrosine-protein kinase SYK; test: Inhibition of SYK in human Ramos cells assessed as reduction in antihuman IgM F(ab)2-induced phosphorylation of BLNK at Y96 residue preincubated for 1 hr followed by antihuman IgM F(ab)2 stimulation for 5 mins by MSD high bind plate assay; assay type: cell-based
[3] = target: T1, Tyrosine-protein kinase SYK; test: Inhibition of SYK in human whole blood assessed as reduction in anti-FCepsilonR1 mAb-induced basophil activation by measuring decrease in CD63 surface expression incubated for 60 mins followed by anti-FCepsilonR1 mAb stimulation for 20 mins by flow cytometry analysis; assay type: tissue-based
[4] = Solubility of compound at pH 7.4; assay type: physicochemical; settings: buffer
[5] = Distribution coefficient, logD of compound; assay type: physicochemical; settings: octanol/water
[6] = Solubility of compound at pH 2; assay type: physicochemical; settings: buffer
[7] = Clearance in human liver microsomes; assay type: ADME, Microsome

Row | SMILES | IC50 [1] [nM] | EC50 [2] [nM] | EC50 [3] [nM] | solubility [4] [µM] | logD [5] | solubility [6] [µM] | CLhep predicted [7] [mL/min/kg]
1 | OC1CN(c2ccc(Nc3nc(-c4ccc5cn[nH]c5c4)cn4ccnc34)cc2)C1 | 11.3 | 57 | 723 | 4 (≈ 1.59 µg/mL) | 1.9 to 2.7 | 78 (≈ 31 µg/mL) | 12.5
2 | COCCN1CCN(c2ccc(Nc3nc(-c4ccc5cn[nH]c5c4)cn4ccnc34)cc2)CC1 | 0.9 | 23 | 267 | < 1 | 1.9 to 2.7 | > 100 | 8.67
3 | c1cn2cc(-c3ccc4c(c3)NCCO4)nc(Nc3ccc(N4CCN(C5COC5)CC4)cc3)c2n1 | 21.5 | 46 | 1230 | 29 (≈ 14 µg/mL) |  | > 100 | 15.2
4 | c1cn2cc(-c3ccc4cn[nH]c4c3)nc(Nc3ccc(N4CC5(CCOCC5)C4)cc3)c2n1 | 9 | 82 | 2180 | 3 (≈ 1.35 µg/mL) | 1.9 to 2.7 | 77 (≈ 34.8 µg/mL) | 4
5 | OC[C@H]1CN(c2ccc(Nc3nc(-c4ccc5cn[nH]c5c4)cn4ccnc34)cc2)CCO1 | 1.1 | 29 | 501 | 1.2 (≈ 0.53 µg/mL) | 1.9 to 2.7 | 87 (≈ 38.4 µg/mL) | 4.33
6 | Nc1cccc(-c2cn3ccnc3c(Nc3ccc(N4CCN(C5COC5)CC4)cc3)n2)n1 | 44.3 | 268 | 308 | 52 (≈ 23 µg/mL) |  | > 100 | 2.17
7 | c1cn2cc(-c3ccc4cc[nH]c4n3)nc(Nc3ccc(N4CCN(C5COC5)CC4)cc3)c2n1 | 11.3 | 18 | 128 | < 1 |  | 99 (≈ 46.2 µg/mL) | 6.33
8 | c1cn2cc(-c3ccc4cn[nH]c4c3)nc(Nc3ccc(N4CC5CC(C4)O5)cc3)c2n1 | 61.6 | 68 | 824 | 2 (≈ 0.847 µg/mL) | 1.9 to 2.7 | 25 (≈ 10.6 µg/mL) | 5.33
9 | c1cn2cc(-c3ccc4cn[nH]c4c3)nc(Nc3ccc(N4CC5COCC5C4)cc3)c2n1 (stereo not drawn) | 9.6 | 187 | 2210 | < 1 | 1.9 to 2.7 | 24 (≈ 10.5 µg/mL) | 4.5
10 | Nc1cncc(-c2cn3ccnc3c(Nc3ccc(N4CCN(C5COC5)CC4)cc3)n2)c1 | 28.6 | 162 | 196 | 87 (≈ 38.5 µg/mL) |  | 98 (≈ 43.4 µg/mL) | 4.33
11 | c1cn2cc(-c3ccc4cn[nH]c4c3)nc(Nc3ccc(N4CCOCC4)cc3)c2n1 [ENTOSPLETINIB] |  |  |  | 6 (≈ 2.47 µg/mL) | 2.5 | 13 (≈ 5.35 µg/mL) | 5.17
12 | c1cn2cc(-c3cnc4nc[nH]c4n3)nc(Nc3ccc(N4CCN(C5COC5)CC4)cc3)c2n1 | 11.5 | 192 |  | 3 (≈ 1.41 µg/mL) |  | > 100 | 2.83
13 | c1cn2cc(-c3ccc4cn[nH]c4n3)nc(Nc3ccc(N4CCN(C5COC5)CC4)cc3)c2n1 | 6.7 | 23 | 86 | 5 (≈ 2.34 µg/mL) |  | > 100 | 4.67
14 | c1cn2cc(-c3ccc4cn[nH]c4c3)nc(Nc3ccc(N4C[C@H]5CC[C@@H](C4)O5)cc3)c2n1 | 5.3 | 162 | 2330 | < 1 | 1.9 to 2.7 | 24 (≈ 10.5 µg/mL) | 9.5
15 | O=S1(=O)CCN(c2ccc(Nc3nc(-c4ccc5cn[nH]c5c4)cn4ccnc34)cc2)CC1 | 19.5 | 33 | 1190 | 3 (≈ 1.38 µg/mL) | 1.9 to 2.7 | 26 (≈ 11.9 µg/mL) | 8.17
16 | c1cn2cc(-c3ccc4c(n3)NCCO4)nc(Nc3ccc(N4CCN(C5COC5)CC4)cc3)c2n1 | 44.1 | 107 | 234 | 2 (≈ 0.969 µg/mL) |  | 99 (≈ 48 µg/mL) | 4.33
17 | c1cn2cc(-c3cnc4cn[nH]c4n3)nc(Nc3ccc(N4CCN(C5COC5)CC4)cc3)c2n1 | 3.2 | 37 | 154 | 2 (≈ 0.937 µg/mL) |  | > 100 | 2.33
18 | c1cn2cc(-c3ccc4cn[nH]c4c3)nc(Nc3ccc(N4CC5(COC5)C4)cc3)c2n1 | 5 | 63 | 1500 | < 1 | 1.9 to 2.7 | 88 (≈ 37.3 µg/mL) | 11
19 | c1cn2cc(-c3ccc4nc[nH]c4n3)nc(Nc3ccc(N4CCN(C5COC5)CC4)cc3)c2n1 | 31.9 | 66 | 89 | 90 (≈ 42.1 µg/mL) |  | > 100 | 2.83
20 | C[C@@H]1CN(c2ccc(Nc3nc(-c4ccc5cn[nH]c5c4)cn4ccnc34)cc2)C[C@H](C)O1 | 4.9 | 45 | 885 | < 1 | 1.9 to 2.7 | 86 (≈ 37.8 µg/mL) | 2.5
21 | c1cn2cc(-c3cnc4cc[nH]c4c3)nc(Nc3ccc(N4CCN(C5COC5)CC4)cc3)c2n1 | 6.9 | 46 | 78 | 1 (≈ 0.467 µg/mL) |  | > 100 | 3.83
22 | c1cn2cc(-c3ccc4cn[nH]c4c3)nc(Nc3ccc(N4C[C@@H]5C[C@H]4CO5)cc3)c2n1 | 5 | 113 | 1500 | < 1 | 1.9 to 2.7 | 79 (≈ 33.5 µg/mL) | 11
23 | c1cn2cc(-c3ccc4cn[nH]c4c3)nc(Nc3ccc(N4[C@H]5COC[C@@H]4COC5)cc3)c2n1 | 13.7 | 33 | 133 | < 1 | 1.9 to 2.7 | < 1 | 9.83
24 | CCN1CCN(c2ccc(Nc3nc(-c4ccc5cn[nH]c5c4)cn4ccnc34)cc2)CC1 | 0.8 | 36 | 456 | 10 (≈ 4.39 µg/mL) | 1.9 to 2.7 | > 100 | 3.33
25 | c1cn2cc(-c3cnc4cn[nH]c4c3)nc(Nc3ccc(N4CCN(C5COC5)CC4)cc3)c2n1 | 2.8 | 13 | 47 | 1 (≈ 0.468 µg/mL) |  | > 100 | 3.17
26 | c1cn2cc(-c3cnc4cc[nH]c4n3)nc(Nc3ccc(N4CCN(C5COC5)CC4)cc3)c2n1 | 1.7 | 11 | 48 | 5 (≈ 2.34 µg/mL) |  | > 100 | 3.33
27 | c1cn2cc(-c3ccc4cc[nH]c4c3)nc(Nc3ccc(N4CCN(C5COC5)CC4)cc3)c2n1 | 15.7 | 26 | 381 | 15 (≈ 6.98 µg/mL) |  | > 100 | 5.17
28 | Nc1cccc(-c2cn3ccnc3c(Nc3ccc(N4CCN(C5COC5)CC4)cc3)n2)c1 | 54.6 | 220 | 939 | 84 (≈ 37.1 µg/mL) |  | > 100 | 3.83
